The text below walks through data of patent publication US20020099098A1, “Method for treating sexual disorders” (priority 2001, published 2002).

In this assay the test system is patients. In words: randomised placebo-controlled double-blind study of deramciclane. It counts as in vivo. The following applies: for number of patients with decreased libido: placebo 2 out of 51, p=0.04, Chi-square-test. As for the experimental part:
The effects of deramciclane were studied in a randomised placebo-controlled double-blind study. The subjects were randomly assigned to four parallel groups to receive one tablet twice daily (b.i.d) of a placebo, 5 mg (=10 mg/day), 15 mg (=30 mg/day), or 30 mg (=60 mg/day) deramciclane.
When analyzing the number of patients with decreased libido, 2 out of 51 patients on placebo experienced it, but none of the patients treated with deramciclane 15 mg b.i.d. (n=53) or 30 mg b.i.d.(n=54) experienced decreased libido (p=0.04, Chi-square-test). In addition, when the Udvalg for Kliniske Undersogelser (UKU) scale was used, 21% of 53 patients experienced orgastic dysfunction at the baseline but only 12% of them after 8-week treatment with deramciclane 15 mg b.i.d.

The structures appear in SMILES notation.

As to `CN(C)CCO[C@]1(c2ccccc2)C[C@H]2CC[C@]1(C)C2(C)C` [deramciclane, (1R,2S,4R)-(−)-2-phenyl 2-(dimethylaminoethoxy)-1,7,7-trimethyl-bicyclo[2.2.1]heptane], the “patients experiencing orgastic dysfunction (UKU scale)” value (after 8-week treatment with deramciclane 15 mg b.i.d., baseline 21% of 53 patients) turned out to be 12%. Also, the “number of patients with decreased libido” value (deramciclane 15 mg b.i.d. (=30 mg/day), n=53) is listed as “none” and the “number of patients with decreased libido” value (deramciclane 30 mg b.i.d. (=60 mg/day), n=54) is reported as “none”.
